The nature of data set [1]: Human hepatocyte stability, in vitro h-Hept CLpredict. The data set is classed as in vitro ADME. As to conditions: cryopreserved hepatocytes, predicted hepatic clearance, cells without asterisk, read-out: hHep Cl. In outline: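 Cryopreserved human hepatocytes at 0.5×10^6 viable cells/mL in William's E medium, compound added from 100 μM solution, sampled 0–120 min in duplicate with LC/MS/MS quantitation. t1/2 from parent disappearance converted to CLint, then scaled to predicted hepatic clearance (well-stirred model, fub assumed 1) and extraction ratio.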

The target in data set [2] is T1, wt human LRRK2, catalytic site (Homo sapiens, UniProt Q5S007).
T1 construct: wt human LRRK2, catalytic site, catalytic site (ThermoFisher/USA); purchased ThermoFisher
Kind of data set: TR-FRET LanthaScreen Tb Kinase Activity Assay, LRRK2 kinase inhibition. The data set is classed as biochemical. Conditions: 2 nM wt human LRRK2, 400 nM peptide, 38 μM ATP. In outline:
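TR-FRET LanthaScreen format: 2 nM wt human LRRK2 catalytic domain with 400 nM fluorescein-ERM (LRRKtide) and 38 μM ATP in Kinase Buffer A, after 15 min compound preincubation. Reaction 120 min at RT, then EDTA plus Tb-anti-pLRRKtide antibody for 60 min; emission ratios analysed per kit protocol.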
Background: TR-FRET usually uses a lanthanide donor and a delayed reading to cut background.

Some results are limits rather than exact numbers.

Usually IC50 stands for the concentration that gives 50% inhibition. A high value points to a need for much substance.

T1 sequence (Q5S007 1879-2138 limits assumed): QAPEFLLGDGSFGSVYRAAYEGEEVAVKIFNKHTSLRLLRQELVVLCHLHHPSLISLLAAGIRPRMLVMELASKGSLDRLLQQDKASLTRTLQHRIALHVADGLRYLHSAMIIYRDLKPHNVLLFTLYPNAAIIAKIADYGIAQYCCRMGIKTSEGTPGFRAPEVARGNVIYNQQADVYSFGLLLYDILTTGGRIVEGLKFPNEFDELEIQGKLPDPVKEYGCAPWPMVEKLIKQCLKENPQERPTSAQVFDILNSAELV

As for `Cc1n[nH]c2c1N=C(c1c(F)cccc1F)Nc1c-2cc(N2CCN(CC(C)F)CC2)nc1C` (racemic) [Example 20, 8-(2,6-difluorophenyl)-13-[4-(2-fluoropropyl)piperazin-1-yl]-5,11-dimethyl-3,4,7,9,12-pentazatricyclo[8.4.0.02,6]tetradeca-1(10),2(6),4,7,11,13-hexaene], in data set [1], the CLhep predicted at 1 µM is less than 6.3 mL/min/kg. Also, in data set [2], the IC50 is less than 2 nM.
On to `Cc1n[nH]c2c1N=C(c1c(F)cccc1F)Nc1c-2cc(N2CCN(CCF)C[C@H]2C)nc1C` (single isomer, unassigned) [Example 18], for which, in data set [1], the CLhep predicted at 1 µM is 6.3 to 14.7 mL/min/kg. For the same compound, the IC50 in data set [2] was less than 2 nM.
Taken in the same sequence, the figures for `Cc1n[nH]c2c1N=C(c1c(F)cccc1F)Nc1cnc(-c3cnn(C(F)F)c3)cc1-2` [Example 1, 9-(1-(difluoromethyl)-1H-pyrazol-4-yl)-5-(2,6-difluorophenyl)-3-methyl-1,6-dihydropyrazolo[4,3-d]pyrido[4,3-f][1,3]diazepine] were less than 6.3 mL/min/kg and less than 2 nM.
For `Cc1n[nH]c2c1N=C(c1c(F)cccc1F)Nc1c-2cc(N2CCN(CC(C)(C)F)CC2)nc1C` [Example 5, 5-(2,6-difluorophenyl)-9-(4-(2-fluoro-2-methylpropyl)piperazin-1-yl)-3,7-dimethyl-1,6-dihydropyrazolo[4,3-d]pyrido[4,3-f][1,3]diazepine], in that order: 6.3 to 14.7 mL/min/kg and less than 2 nM.
Taken in the same sequence, the figures for `Cc1n[nH]c2c1N=C(c1c(F)cccc1F)Nc1ccc(N3CCO[C@H](C)C3)cc1-2` [Example 7, (R)-4-(5-(2,6-difluorophenyl)-3-methyl-1,6-dihydrobenzo[d]pyrazolo[3,4-f][1,3]diazepin-9-yl)-2-methylmorpholine] were 6.3 to 14.7 mL/min/kg and less than 2 nM.
As for `Cc1n[nH]c2c1N=C(c1c(F)cccc1F)Nc1c-2cc(N2CCOCC2)nc1C` [Example 8, 4-[8-(2,6-difluorophenyl)-5,11-dimethyl-3,4,7,9,12-pentazatricyclo[8.4.0.02,6]tetradeca-1(10),2(6),4,7,11,13-hexaen-13-yl]morpholine], the CLhep predicted at 1 µM in data set [1] is 6.3 to 14.7 mL/min/kg. This compound registered an IC50 in data set [2] of less than 2 nM.
For the compound `Cc1n[nH]c2c1N=C(c1c(F)cccc1F)Nc1c-2cc(N2CCN(CCF)CC2)nc1C` [Example 9, 8-(2,6-difluorophenyl)-13-[4-(2-fluoroethyl)piperazin-1-yl]-5,11-dimethyl-3,4,7,9,12-pentazatricyclo[8.4.0.02,6]tetradeca-1(10),2(6),4,7,11,13-hexaene], the CLhep predicted at 1 µM in data set [1] was less than 6.3 mL/min/kg. Besides, the IC50 in data set [2] is less than 2 nM.
For `Fc1cccc(F)c1C1=Nc2c(C(F)F)n[nH]c2-c2cc(N3CCOCC3)ncc2N1` [Example 10, 4-[5-(difluoromethyl)-8-(2,6-difluorophenyl)-3,4,7,9,12-pentazatricyclo[8.4.0.02,6]tetradeca-1(10),2(6),4,7,11,13-hexaen-13-yl]morpholine], in that order: 6.3 to 14.7 mL/min/kg and less than 2 nM.
For the compound `Cc1n[nH]c2c1N=C(c1c(F)cccc1F)Nc1cnc(-c3ccn(C(F)F)n3)cc1-2` [Example 12, 13-[1-(difluoromethyl)pyrazol-3-yl]-8-(2,6-difluorophenyl)-5-methyl-3,4,7,9,12-pentazatricyclo[8.4.0.02,6]tetradeca-1(10),2(6),4,7,11,13-hexaene], the CLhep predicted at 1 µM in data set [1] was less than 6.3 mL/min/kg. In data set [2], this compound registered an IC50 of less than 2 nM.
Turning to `Cc1n[nH]c2c1N=C(c1c(F)cccc1F)Nc1ccc(-c3cnn(C(F)F)c3)cc1-2` [Example 13, 9-[1-(difluoromethyl)pyrazol-4-yl]-5-(2,6-difluorophenyl)-3-methyl-1,6-dihydropyrazolo[4,3-d][1,3]benzodiazepine], the CLhep predicted at 1 µM in data set [1] was 6.3 to 14.7 mL/min/kg. Besides, the IC50 in data set [2] is less than 2 nM.
As to `Cc1n[nH]c2c1N=C(c1c(F)cccc1F)Nc1cnc(C#CC3(C)CCOCC3)cc1-2` [Example 17, 8-(2,6-difluorophenyl)-5-methyl-13-[2-(4-methyltetrahydropyran-4-yl)ethynyl]-3,4,7,9,12-pentazatricyclo[8.4.0.02,6]tetradeca-1(10),2(6),4,7,11,13-hexaene], the CLhep predicted at 1 µM in data set [1] is greater than 14.7 mL/min/kg. The compound also yielded an IC50 in data set [2] of less than 2 nM.
For `Cc1n[nH]c2c1N=C(c1c(F)cccc1F)Nc1c-2cc(N2CCN(CC(F)F)CC2)nc1C` [Example 19, 13-[4-(2,2-difluoroethyl)piperazin-1-yl]-8-(2,6-difluorophenyl)-5,11-dimethyl-3,4,7,9,12-pentazatricyclo[8.4.0.02,6]tetradeca-1(10),2(6),4,7,11,13-hexaene], in that order: 6.3 to 14.7 mL/min/kg and less than 2 nM.
Taken in the same sequence, the figures for `[2H]C1([2H])OC([2H])([2H])C([2H])([2H])N(c2ccc3c(c2)-c2[nH]nc(C)c2N=C(c2c(F)cccc2F)N3)C1([2H])[2H]` [Example 22, 2,2,3,3,5,5,6,6-octadeuterio-4-[5-(2,6-difluorophenyl)-3-methyl-1,6-dihydropyrazolo[4,3-d][1,3]benzodiazepin-9-yl]morpholine] were 6.3 to 14.7 mL/min/kg and less than 2 nM.
For `Cc1n[nH]c2c1N=C(c1c(F)cccc1F)Nc1c-2cc(N2CCN(CC(F)(F)F)CC2)nc1C` [Example 23, 5-(2,6-difluorophenyl)-3,7-dimethyl-9-(4-(2,2,2-trifluoroethyl)piperazin-1-yl)-1,6-dihydropyrazolo[4,3-d]pyrido[4,3-f][1,3]diazepine], in that order: 6.3 to 14.7 mL/min/kg and less than 2 nM.
Turning to `Cc1n[nH]c2c1N=C(c1c(F)cccc1F)Nc1ccc(N3CCN(CCF)CC3)cc1-2` [Example 25, 5-(2,6-difluorophenyl)-9-[4-(2-fluoroethyl)piperazin-1-yl]-3-methyl-1,6-dihydropyrazolo[4,3-d][1,3]benzodiazepine], in data set [1], the CLhep predicted at 1 µM was less than 6.3 mL/min/kg. This compound also had an IC50 in data set [2] of less than 2 nM.
For `Cc1n[nH]c2c1N=C(c1c(F)cccc1F)Nc1ccc(N3CCO[C@@H](C)C3)cc1-2` [Example 26, (S)-4-(5-(2,6-difluorophenyl)-3-methyl-1,6-dihydrobenzo[d]pyrazolo[3,4-f][1,3]diazepin-9-yl)-2-methylmorpholine], in that order: less than 6.3 mL/min/kg and 2 to 100 nM.
Taken in the same sequence, the figures for `Cc1n[nH]c2c1N=C(c1c(F)cc(F)cc1F)Nc1ccc(N3CCOCC3)cc1-2` [Example 27, 4-[3-methyl-5-(2,4,6-trifluorophenyl)-1,6-dihydropyrazolo[4,3-d][1,3]benzodiazepin-9-yl]morpholine] were 6.3 to 14.7 mL/min/kg and 2 to 100 nM.
For `Cc1n[nH]c2c1N=C(c1c(F)cccc1F)Nc1cc(F)c(N3CCOCC3)cc1-2` [Example 28, 4-[5-(2,6-difluorophenyl)-8-fluoro-3-methyl-1,6-dihydropyrazolo[4,3-d][1,3]benzodiazepine-9-yl]morpholine], in that order: less than 6.3 mL/min/kg and 2 to 100 nM.
With `Cc1n[nH]c2c1N=C(c1c(F)cccc1F)Nc1ccc(N3CCOCC3)cc1-2` [Example 29, 4-(5-(2,6-difluorophenyl)-3-methyl-1,6-dihydrobenzo[d]pyrazolo[3,4-f][1,3]diazepin-9-yl)morpholine], the CLhep predicted at 1 µM in data set [1] was 6.3 to 14.7 mL/min/kg. In data set [2], this compound yielded a half-inhibitory concentration (IC50) of less than 2 nM.
On to `Cc1n[nH]c2c1N=C(c1c(F)cccc1F)Nc1c(F)cc(N3CCOCC3)cc1-2` [Example 30, 4-(5-(2,6-difluorophenyl)-7-fluoro-3-methyl-1,6-dihydrobenzo[d]pyrazolo[3,4-f][1,3]diazepin-9-yl)morpholine], for which the CLhep predicted at 1 µM in data set [1] was 6.3 to 14.7 mL/min/kg. The compound also registered an IC50 in data set [2] of less than 2 nM.
Taken in the same sequence, the figures for `CCc1n[nH]c2c1N=C(c1c(F)cccc1F)Nc1cnc(N3CCOCC3)cc1-2` [Example 31, 4-[8-(2,6-difluorophenyl)-5-ethyl-3,4,7,9,12-pentazatricyclo[8.4.0.02,6]tetradeca-1(10),2(6),4,7,11,13-hexaen-13-yl]morpholine] were less than 6.3 mL/min/kg and 2 to 100 nM.
Taken in the same sequence, the figures for `[2H]C([2H])([2H])c1n[nH]c2c1N=C(c1c(F)cccc1F)Nc1cnc(N3CCOCC3)cc1-2` [Example 32, 4-[8-(2,6-difluorophenyl)-5-(trideuteriomethyl)-3,4,7,9,12-pentazatricyclo[8.4.0.02,6]tetradeca-1(10),2(6),4,7,11,13-hexaen-13-yl]morpholine] were less than 6.3 mL/min/kg and less than 2 nM.
For `[2H]C([2H])([2H])c1n[nH]c2c1N=C(c1c(F)cccc1F)Nc1ccc(N3CCOCC3)cc1-2` [Example 33, 4-[5-(2,6-difluorophenyl)-3-(trideuteriomethyl)-1,6-dihydropyrazolo[4,3-d][1,3]benzodiazepin-9-yl]morpholine], in that order: less than 6.3 mL/min/kg and less than 2 nM.
As for `[2H]C([2H])([2H])c1n[nH]c2c1N=C(c1c(F)cccc1F)Nc1ccc(N3CCO[C@@H](C)C3)cc1-2` [Example 34, (2S)-4-[5-(2,6-difluorophenyl)-3-(trideuteriomethyl)-1,6-dihydropyrazolo[4,3-d][1,3]benzodiazepin-9-yl]-2-methyl-morpholine], the CLhep predicted at 1 µM in data set [1] is less than 6.3 mL/min/kg. In data set [2], the IC50 is less than 2 nM.
Taken in the same sequence, the figures for `Cc1n[nH]c2c1N=C(c1c(F)cccc1F)Nc1c-2cc(N2CCO[C@@H](C)C2)nc1C` [Example 40, (S)-4-(5-(2,6-difluorophenyl)-3,7-dimethyl-1,6-dihydropyrazolo[4,3-d]pyrido[4,3-f][1,3]diazepin-9-yl)-2-methylmorpholine] were less than 6.3 mL/min/kg and less than 2 nM.

Source of the values: patent publication US20240208972A1, “LRRK2 INHIBITORS AND USES THEREOF” (NEURON23, INC., priority 2022, published 2024).
